The values that follow come from ChEMBL document CHEMBL1133531, “Carbonic anhydrase inhibitors: perfluoroalkyl/aryl-substituted derivatives of aromatic/heterocyclic sulfonamides as topical intraocular pressure-lowering agents with prolonged duration of action” (J Med Chem, 2000).

In general, solubility refers to the concentration that dissolves in the medium under given conditions. Read a low solubility as little dissolved substance. What is called Ki is the equilibrium dissociation constant of an inhibitor or competing ligand from its target. What is called logD is the decadic logarithm of the distribution of all forms, ionised or not, between an organic phase and buffer at a given pH. Lower therefore signals a more hydrophilic compound.

Data set [1] in a line: Solubility in pH 7.4 Buffer, at 25 Degree C. Type of data set: physicochemical.
The test system of data set [2] is Oryctolagus cuniculus. Kind of data set: Tested for in vivo IOP-lowering of glaucomatous rabbits after topical administration at the specified interval( 90 min) at pH 6.5. Type of data set: functional.
Data set [3] deals with Oryctolagus cuniculus. The experiment in a line: Tested for in vivo IOP-lowering of glaucomatous rabbits after topical administration at the specified interval( 30 min) at pH 6.5. Type of data set: functional.
The test system of data set [4] is Oryctolagus cuniculus. Kind of data set: Tested for in vivo IOP-lowering of glaucomatous rabbits after topical administration at the specified interval( 60 min) at pH 6.5. The format is functional.
The target of data set [5] is T1, Carbonic anhydrase 1 (Homo sapiens, UniProt P00915).
Description: Inhibition of human recombinant carbonic anhydrase I (CA1)
Data set [6] has as its target T2, Carbonic anhydrase 4 (Bos taurus, UniProt Q95323).
T2 sequence (Q95323 whole entry): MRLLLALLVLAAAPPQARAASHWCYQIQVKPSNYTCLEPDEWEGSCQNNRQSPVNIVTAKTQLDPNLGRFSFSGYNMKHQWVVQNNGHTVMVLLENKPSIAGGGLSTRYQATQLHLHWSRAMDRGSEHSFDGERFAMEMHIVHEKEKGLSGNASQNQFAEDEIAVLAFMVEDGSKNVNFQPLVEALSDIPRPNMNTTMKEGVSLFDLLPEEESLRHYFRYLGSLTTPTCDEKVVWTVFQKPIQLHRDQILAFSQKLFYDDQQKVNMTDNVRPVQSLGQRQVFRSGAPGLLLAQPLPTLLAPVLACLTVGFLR
Description: Inhibition of bovine carbonic anhydrase IV (CA4) from bovine lung microsomes

The conditions of data set [7]: octanol/water.
Description: Partition coefficient (logD) (chloroform/buffer)
For data set [8], the species on record is Oryctolagus cuniculus.
Description: Tested for in vivo IOP-lowering of normotensive albino rabbits after topical administration at the specified interval (30 min) at pH 6.5
The species named for data set [9] is Oryctolagus cuniculus. The source holds these as a separate data set.
Description: Tested for in vivo IOP-lowering of normotensive albino rabbits after topical administration at the specified interval (60 min) at pH 6.5
For data set [10], the species on record is Oryctolagus cuniculus. The source holds these as a separate data set.
Description: Tested for in vivo IOP-lowering of normotensive albino rabbits after topical administration at the specified interval (90 min) at pH 6.5
Data set [11] is filed under the species Oryctolagus cuniculus. This is another data set of the same source.
Description: Tested for ex vivo distribution in aqueous humor after topical administration in albino rabbits (Ocular tissue concentration after 1 hr)
For data set [12], the species on record is Oryctolagus cuniculus. The source holds these as a separate data set.
Description: Tested for ex vivo distribution in aqueous humor after topical administration in albino rabbits (Ocular tissue concentration after 2 hr)
The species entered for data set [13] is Oryctolagus cuniculus. The source holds these as a separate data set.
Description: Tested for ex vivo distribution in ciliary process after topical administration in albino rabbits (Ocular tissue concentration after 1 hr)
The species entered for data set [14] is Oryctolagus cuniculus. This is another data set of the same source.
Description: Tested for ex vivo distribution in ciliary process after topical administration in albino rabbits (Ocular tissue concentration after 2 hr)
For data set [15], the species on record is Oryctolagus cuniculus. The source holds these as a separate data set.
Description: Tested for ex vivo distribution in cornea after topical administration in albino rabbits (Ocular tissue concentration after 1 hr)
The species named for data set [16] is Oryctolagus cuniculus. This is another data set of the same source.
Description: Tested for ex vivo distribution in cornea after topical administration in albino rabbits (Ocular tissue concentration after 2 hr)
For data set [17], the species on record is Oryctolagus cuniculus. The source holds these as a separate data set.
Description: In vitro transcorneal accession rate in rabbit corneal denuded epithelium
For data set [18], the species on record is Oryctolagus cuniculus. This is another data set of the same source.
Description: In vitro transcorneal accession rate in rabbit corneal intact epithelium
The target in data set [19] is T1, Carbonic anhydrase 1. Kind of data set: 99 Tested for inhibition of human (cloned) isozyme Carbonic anhydrase I.
In data set [20] the target is T1, Carbonic anhydrase 1. Kind of data set: Tested for inhibition of human (cloned) isoenzyme carbonic anhydrase 1.
For data set [21], the target named is T1, Carbonic anhydrase 1. Kind of data set: Tested for inhibition of human (cloned) isozyme Carbonic anhydrase I.
Data set [22] is described as follows: Partition coefficient (logD) (chloroform-buffer). Type of data set: physicochemical.
Data set [23] in a line: physchem. The settings on record: pH 7.4 buffer.
Description: Tested for solubility in pH 7.4 buffer, at 25 Degree C

In brackets after ≈: the same amount, converted by molar mass.

T1 sequence (P00915 whole entry): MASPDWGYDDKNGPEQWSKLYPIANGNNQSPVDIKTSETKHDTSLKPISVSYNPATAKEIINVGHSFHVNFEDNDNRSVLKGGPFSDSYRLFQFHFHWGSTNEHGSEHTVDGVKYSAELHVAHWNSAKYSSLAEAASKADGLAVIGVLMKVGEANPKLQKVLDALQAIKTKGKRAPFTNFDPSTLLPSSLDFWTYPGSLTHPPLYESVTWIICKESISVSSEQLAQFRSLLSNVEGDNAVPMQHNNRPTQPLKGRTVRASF

In data set [1], `Cn1nc(S(N)(=O)=O)sc1=NS(=O)(=O)c1c(F)c(F)c(F)c(F)c1F` registered a solubility of 66 mM (≈ 28 mg/mL). Further, the “Delta IOP” value in [2] worked out at 16.9 mmHg; in [3], 7.1 mmHg; in data set [4] it was 14.2 mmHg; in data set [8] it was 4.7 mmHg; in data set [9] it was 11.3 mmHg; in [10] it was 9.1 mmHg. In addition, the Ki amounted to 250 nM in data set [5] and 9 nM in data set [6]. Also, in [7], the logD was 2.347. Moreover, the Drug concentration in data set [11] came to 296 µM; in data set [12], 39 µM; in data set [13] it was 38 µM; in [14] it was 7.1 µM; in [15], 150 µM; in [16] it was 36 µM. For the same molecule, the Kin in data set [17] stood at 8800 h⁻¹; in [18], 4900 h⁻¹.
For `NS(=O)(=O)c1ccc(NC(=O)c2c(F)c(F)c(F)c(F)c2F)cc1`, the results for the Ki in data set [19] and in data set [6] were 950 nM and 600 nM, respectively.
In the case of `NS(=O)(=O)c1ccc(NNS(=O)(=O)C(F)(F)C(F)(F)C(F)(F)C(F)(F)C(F)(F)C(F)(F)C(F)(F)C(F)(F)F)cc1`, the Ki in [20] was determined as 1680 nM; in data set [6] it was 860 nM.
For `NS(=O)(=O)c1ccccc1NC(=O)c1c(F)c(F)c(F)c(F)c1F`, the Ki in data set [21] is 1560 nM; in data set [6], 810 nM.
For `Cn1nc(S(N)(=O)=O)sc1=NS(=O)(=O)C(F)(F)F`, in data set [22], the logD was found to be 1.012. The Ki came to 2000 nM in [5] and 32 nM in data set [6]. For the same molecule, the “Delta IOP” value was found to be 3.2 mmHg in [8], 7.3 mmHg in [9] and 4.9 mmHg in data set [10]. Also, the Kin in data set [17] worked out at 4800 h⁻¹; in data set [18], 3100 h⁻¹. This molecule also displayed a solubility in data set [23] of 69 mM (≈ 22.5 mg/mL).
As to `NS(=O)(=O)c1cccc(NC(=O)c2c(F)c(F)c(F)c(F)c2F)c1`, the Ki amounted to 1400 nM in [21] and 650 nM in data set [6].
The molecule `NS(=O)(=O)c1nnc(NS(=O)(=O)c2c(F)c(F)c(F)c(F)c2F)s1` had a solubility in [1] of 62 mM (≈ 25.4 mg/mL). The values for the Ki in data set [5] and in [6] were 210 nM and 6 nM, respectively. In addition, the logD in data set [7] was found to be 2.113. Moreover, the Drug concentration is 324 µM in [11]; 42 µM in data set [12]; 45 µM in data set [13]; 12.5 µM in [14]; 176 µM in data set [15]; 69 µM in [16]. The Kin in [17] turned out to be 8700 h⁻¹; in [18], 4500 h⁻¹.
